Measurements taken from PubChem BioAssay (NCI).
Values joined by “and” are separate entries in the source; they are usually repeats but may differ in a detail not shown here. Equal entries are not always repeated.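 A five-concentration, 48-hour dose response in 96-well plates underlies each endpoint, interpolated linearly between surrounding concentrations. At the GI50, growth is halved. TGI is the concentration that stops growth completely.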

What was measured:
Assay in all cases: inhibition of tumour cell growth, NCI panel, 48 h
DLD-1 colon = system: DLD-1 colon
DMS 273 small cell lung = system: DMS 273 small cell lung
KM20L2 colon = system: KM20L2 colon
M19-MEL melanoma = system: M19-MEL melanoma
SNB-78 CNS = system: SNB-78 CNS
XF 498 CNS = system: XF 498 CNS
MDA-N = system: MDA-N
RXF-631 renal = system: RXF-631 renal

For `Cc1ccc(C)c(N2C(=O)C(=O)C(c3nc4ccccc4s3)/C(=N/N)C2=O)c1` (stereo unspecified), the TGI (DLD-1 colon) was > 100 µM, the TGI (DMS 273 small cell lung) was > 100 µM and the TGI (KM20L2 colon) was > 100 µM. For the same compound, the TGI (M19-MEL melanoma) was > 52.7 µM, the TGI (SNB-78 CNS) was > 100 µM and the TGI (XF 498 CNS) was > 100 µM.
With `COC(=O)[C@@H]1c2cc3c(c(O)c2[C@@H](OC2OC(C)C(OC)C(C)(OC)C2OC)C[C@]1(C)O)C(=O)c1c(O)cc2c(c1C3=O)O[C@H]1O[C@]2(C)[C@H](O)[C@@H](N(C)C)[C@@H]1O` (stereo partly specified) the TGI (DLD-1 colon) was 0.258 µM and 0.436 µM, the TGI (DMS 273 small cell lung) was 0.0282 µM and the GI50 (KM20L2 colon) was 0.0127 µM. The TGI (M19-MEL melanoma) was 0.0156 µM and 0.0185 µM, the TGI (MDA-N) was 0.179 µM and the TGI (SNB-78 CNS) was 0.0762 µM.
With `NC(=O)NNC(=O)CCn1[nH]c(=O)c(Cl)c(Cl)c1=O` the TGI (DLD-1 colon) was > 100 µM, the TGI (DMS 273 small cell lung) was > 100 µM and the TGI (KM20L2 colon) was > 100 µM. For the same compound, the TGI (M19-MEL melanoma) was > 100 µM, the TGI (RXF-631 renal) was > 100 µM and the TGI (SNB-78 CNS) was > 100 µM.
With `CC1(C)OC2C(CCP(=O)(O)O)OC(c3nc(C(N)=O)cs3)C2O1` (stereo unspecified) the TGI (DLD-1 colon) was > 100 µM, the TGI (DMS 273 small cell lung) was > 100 µM and the TGI (KM20L2 colon) was > 100 µM. The TGI (M19-MEL melanoma) was > 100 µM and the TGI (RXF-631 renal) was > 100 µM.
`O=C(O)c1cc(-c2ccc3cc4c(cc3c2)OCO4)nc2ccccc12` was tested, and the TGI (MDA-N) was > 100 µM.
For `CN(Cc1ccccc1)Cn1ccnc1`, the TGI (MDA-N) was > 100 µM.
In the case of `CCOC(=O)Cc1c(C)c2cc(C(=O)c3ccccc3)c(O)cc2oc1=O`, the TGI (MDA-N) is reported as > 100 µM.
With `N#C/C(=C\c1cc(O)cc(O)c1)C(N)=O` the TGI (DLD-1 colon) was > 100 µM, the TGI (DMS 273 small cell lung) was > 100 µM and the TGI (KM20L2 colon) was > 100 µM. For the same compound, the TGI (M19-MEL melanoma) was > 100 µM, the TGI (RXF-631 renal) was > 100 µM and the TGI (SNB-78 CNS) was > 100 µM. The TGI (XF 498 CNS) was > 100 µM.
With `C/C=C(\C)c1cc(=O)c2c(C)cc3c(c2o1)C(=O)c1c(O)c(C2CC(C)(N(C)C)C(OC(C)=O)C(C)O2)cc(C2CC(N(C)C)C(O)C(C)O2)c1C3=O` (stereo unspecified) the TGI (MDA-N) was 4.83 µM.
For `O=C1C=C(Nc2ccc(Cl)cc2Cl)c2ccccc2C1=O`, the TGI (DLD-1 colon) was > 100 µM, the TGI (DMS 273 small cell lung) was 79.5 µM and the TGI (KM20L2 colon) was > 100 µM. The TGI (M19-MEL melanoma) was 26.3 µM, the TGI (RXF-631 renal) was > 100 µM and the TGI (SNB-78 CNS) was > 100 µM.
For `C=CSCCC(N)C(=O)O` (stereo unspecified), the TGI (DLD-1 colon) was > 100 µM, the TGI (DMS 273 small cell lung) was > 100 µM and the TGI (KM20L2 colon) was > 100 µM. For the same compound, the TGI (M19-MEL melanoma) was > 100 µM, the TGI (RXF-631 renal) was > 100 µM and the TGI (SNB-78 CNS) was > 100 µM. For the same compound, the TGI (XF 498 CNS) was > 100 µM.
With `O=C(/C=C\c1ccccc1O)c1ccc(O)cc1O` the TGI (DLD-1 colon) was > 100 µM, the TGI (DMS 273 small cell lung) was > 100 µM and the TGI (KM20L2 colon) was > 100 µM. The TGI (M19-MEL melanoma) was > 100 µM, the TGI (RXF-631 renal) was > 100 µM and the TGI (SNB-78 CNS) was > 100 µM.
In the case of `Cc1c(-c2cnccn2)ssc1=S`, the TGI (MDA-N) is reported as > 100 µM.
For `C=C[C@@H](C)[C@]1(C(=O)OC)CCCC12OCCO2`, the TGI (DLD-1 colon) was > 100 µM, the TGI (DMS 273 small cell lung) was > 100 µM and the TGI (KM20L2 colon) was > 100 µM. The TGI (M19-MEL melanoma) was > 100 µM and the TGI (XF 498 CNS) was > 100 µM.
In the case of `CC(C)(C)C1=CC(=C(P(=O)(O)O)P(=O)(O)O)C=C(C(C)(C)C)C1=O`, the TGI (DLD-1 colon) is reported as > 50 µM, the TGI (DMS 273 small cell lung) is reported as > 50 µM and the TGI (KM20L2 colon) is reported as > 50 µM. For the same compound, the TGI (M19-MEL melanoma) was > 50 µM, the TGI (RXF-631 renal) was > 50 µM and the TGI (SNB-78 CNS) was > 50 µM.
`COc1ccc(Nc2nc3cc(N)cc(N)c3nc2-c2ccccc2)cc1` gave a GI50 (MDA-N) of 21.6 µM and a TGI (MDA-N) of 36 µM.
`CC(=O)Nc1ccc(/C=C/C(=O)c2sc(-c3cccnc3)nc2C)cc1` was tested, and the TGI (DLD-1 colon) was > 100 µM, the TGI (DMS 273 small cell lung) was > 100 µM and the TGI (KM20L2 colon) was > 100 µM. The TGI (M19-MEL melanoma) was > 100 µM and the TGI (SNB-78 CNS) was > 100 µM.
`CN(CCS(=O)(=O)N1C(=O)C2CCCN2C(=O)[C@@H]1Cc1ccccc1)C(=O)OCc1ccccc1` (stereo partly specified) was tested, and the TGI (DLD-1 colon) was > 100 µM, the TGI (KM20L2 colon) was > 100 µM and the TGI (M19-MEL melanoma) was > 100 µM. The TGI (RXF-631 renal) was > 100 µM and the TGI (SNB-78 CNS) was > 100 µM.
With `O=C(CCC(=O)Nc1ccc(Cl)c(Cl)c1)Cc1nc2ccccc2o1` the TGI (DMS 273 small cell lung) was > 100 µM, the TGI (KM20L2 colon) was > 100 µM and the TGI (M19-MEL melanoma) was > 100 µM. The TGI (RXF-631 renal) was > 100 µM and the TGI (SNB-78 CNS) was > 100 µM.
With `OCC1C(OCc2ccccc2)C(OCc2ccccc2)C(OCc2ccccc2)CN1Cc1ccccc1` (stereo unspecified) the TGI (MDA-N) was > 100 µM.
In the case of `NCCSSCc1ccccc1CSSCCN`, the TGI (DLD-1 colon) is reported as > 100 µM, the TGI (DMS 273 small cell lung) is reported as > 100 µM and the TGI (KM20L2 colon) is reported as > 100 µM. For the same compound, the TGI (M19-MEL melanoma) was > 100 µM, the TGI (RXF-631 renal) was > 100 µM and the TGI (SNB-78 CNS) was > 100 µM. For the same compound, the TGI (XF 498 CNS) was > 100 µM.
For `CCc1nc(N)nc(N)c1-c1ccc(Cl)c([N+](=O)[O-])c1`, the TGI (MDA-N) was > 100 µM.
